For data set [1], the system named is null-FRT cells not expressing CFTR. Nature of the data set: Whole-cell patch-clamp, null-FRT cells. The settings on record: untransfected FRT, 20 µM FSK + 10 µM Esc peptides or GEN, n ≥ 3. The format is cell-based, Fischer rat.
Procedure: For whole-cell experiments the extracellular (bath) solution contained (in mM): 150 NaCl, 1 CaCl2, 1 MgCl2, 10 glucose, 10 mannitol, 10 Na-HEPES (pH 7.4). The pipette (intracellular) solution contained (in mM): 120 CsCl, 10 TEA-Cl, 0.5 EGTA, 1 MgCl2, 10 Cs-HEPES, 40 mannitol, 1 ATP. To activate CFTR, 20 µM FSK was added to the extracellular solution to phosphorylate the channel. In some samples the combination FSK + 50 µM GEN (positive control) as well as FSK + 10 µM peptides were added to the extracellular solution to test their potentiator activity.
For both patch configurations, the protocol to correlate current intensity and voltage for stimulation consisted of 500-ms voltage steps from -100 to + 100 mV or from -80 to + 120 mV in 20 mV increments, starting from a holding potential of -60 mV. The time-dependence of CFTR activation and inactivation was monitored by application of steps of 50 ms pulses to − 100, − 50, 0, 50 and 100 mV every 5 s from a holding potential of − 60 mV. The interval between steps was 4 s. Membrane currents were filtered at 1 kHz and digitized at 5 kHz by a low–pass 4–pole Bessel filter. […]
Whole-cell membrane currents were recorded in null FRT cells not expressing CFTR by using the same experimental solutions and stimulation protocols as described in the main text for F508del- FRT.
The conditions of data set [2]: ivacaftor-based treatment of patients; cited from earlier work. The text has this: Many proof-of-concept studies have disclosed that chemically modified ATP analogs and small organic molecules (e.g., isoflavones) have good potentiation effect by enhancing CFTR channel gating. However, the expected unspecific binding of ATP analogs to other proteins implicated in physiological functions limits the development of these molecules to the clinic. Other compounds capable of improving the activity of mutant CFTR can promote its phosphorylation by inhibiting phosphodiesterase’s activity, to heighten the intracellular level of cAMP. Ivacaftor was the first CFTR potentiator approved f ...

Data set [3] deals with F508del-FRT and wt-FRT cells. In kind it is cell-based, Fischer rat. On the procedure: (§1) To evaluate the lung epithelia integrity, FRT and CFBE41o- cells expressing mutated or functional CFTR were seeded on permeable supports (24 Millicell plates PSHT01QR1) and incubated for 24 h in their standard culture medium in the presence of peptides, at different concentration. DMSO, 0.1% v:v, final concentration) that was used to solubilize each compound was included as control. After 24 h, the medium was replaced with saline solution containing (in mM): 130 NaCl, 2.7 KCl, 1.5 KH2PO4, 1 CaCl2, 0.5 MgCl2, 10 glucose, 10 Na-Hepes (pH, 7.4). Saline solution was added to both apical and basolateral compartments of the permeable supports. Samples were incubated for 10 min at 37 °C and TEER was measured in basal conditions without CFTR activation, with the epithelial voltmeter (MILLICELL ERS-2, Millipore Burlington, MA).

Data set [4] concerns F508del-CFBE41o- and wt-CFBE41o- cells. In kind it is cell-based. The procedure:
as §1

The test system of data set [5] is F508del-CFTR. Nature of the data set: CFTR-mediated transepithelial conductance (TEER), F508del-FRT. In kind it is cell-based. The settings on record: F508del-FRT pre-incubated 24 h with 1 µM VX-809; 10 µM peptide + 20 µM FSK, 10 min; inhibition with 30 µM PPQ102; n ≥ 6. The procedure:
To evaluate CFTR activation, the same saline solution was used. Cells expressing F508del mutation were incubated with 1 µM VX-809 to favor the mutant protein rescue. After measurement of basal TEER, 20 µM FSK + 10 µM GEN as positive control, or FSK + peptides at the desired concentration were added on the epithelium apical side. Finally, 30 µM PPQ102 was added on the epithelium apical side to block CFTR, so to measure the own activity of CFTR. TEER measurement was performed at 37 °C after 10 min from the addition of each compound. From the values of TEER measured before and after CFTR inhibition, we calculated the CFTR-dependent TEER for each condition. All values of TEER were converted to transepithelial conductance (TEEC) using the formula TEEC = 1/TEER [67].

For data set [6] the following is noted: cited from earlier work. The text has this: (§2) During the last years, several studies have been conducted to identify compounds with suitable antibacterial properties. Antimicrobial peptides (AMPs) are a promising and effective therapeutic resource. Indeed, they rapidly kill microbial pathogens by perturbing their plasma-membrane thus limiting the induction of bacterial resistance compared to conventional antibiotics. In our laboratory, we identified a frog-skin derived membrane-active cationic AMP, i.e., Esc(1–21) […]-NH2 [24], with biocidal activity against the planktonic and the biofilm forms of P ...

Data set [7] deals with P. aeruginosa pulmonary infection. The following applies: cited from earlier work.
Excerpt: as §2

Data set [8] deals with wt-CFBE and F508del-CFBE. The following applies: monolayers of wt-CFBE and F508del-CFBE; cited from earlier work.
Excerpt: as §2

Data set [9] deals with F508del-CFTR. Nature of the data set: Inside-out patch-clamp (macro-patches), F508del-FRT cells. In kind it is biochemical. The following applies: 1 mM ATP + 125 nM PKA catalytic subunit + 10 µM peptide in intracellular bath, n ≥ 3. On the procedure:
Whole-cell and inside-out membrane currents were recorded in FRT cells stably expressing F508del CFTR after incubation with 1 µM of the corrector VX-809 for 24 h to increase mutated CFTR membrane expression.
For inside-out patch-clamp experiments, the pipette solution contained (in mM): 150 N-methyl-D-glucamine chloride (NMDG-Cl), 3 CaCl2, 2 MgCl2, 10 Na-Hepes (pH 7.3). The bath solution for these experiments contained (in mM): 150 NMDG-Cl, 2 MgCl2, 10 EGTA, 10 Na-Hepes, 1 ATP, which was supplemented with 125 nM catalytic subunit of PKA (Promega, […]) and peptides at 10 µM. Pipette electrical resistance for both whole-cell and inside-out experiments was 3–5 MΩ.
For both patch configurations, the protocol to correlate current intensity and voltage for stimulation consisted of 500-ms voltage steps from -100 to + 100 mV or from -80 to + 120 mV in 20 mV increments, starting from a holding potential of -60 mV. The time-dependence of CFTR activation and inactivation was monitored by application of steps of 50 ms pulses to − 100, − 50, 0, 50 and 100 mV every 5 s from a holding potential of − 60 mV. The interval between steps was 4 s. Membrane currents were filtered at 1 kHz and digitized at 5 kHz by a low–pass 4–pole Bessel filter.
Background: In patch-clamp work, channel activity is measured electrically.

Where no end group is shown, it is not given here. [ ]: non-standard residue; d: D form.

As for `O=c1c(-c2ccc(O)cc2)coc2cc(O)cc(O)c12` [GEN, genistein], in [1], the “change of ion current” value was “no significant change”.
Turning to `CC(C)(C)c1cc(C(C)(C)C)c(NC(=O)c2c[nH]c3ccccc3c2=O)cc1O` [VX-770, ivacaftor], in [2], the enhanced lung function was 10%.
With “GIFSKLAGKKIKN[dL]LI[dS]GLKG-NH2 [Esc(1–21)-1c, diastereomer of Esc(1–21) carrying D-Leu14 and D-Ser17]”, the “change of TEER / transepithelial conductance (G) versus DMSO control” value in [3] and in data set [4] was “do not alter” throughout. For the same compound, in [5], the “CFTR-mediated conductance (ΔG) compared to FSK-treated samples” value was “slightly more pronounced”. The “susceptibility to proteolytic degradation compared with Esc(1–21)” value in data set [6] is “less susceptible”. Moreover, in data set [7], the “toxicity or inflammatory side events” value is given as “without eliciting toxicity or inflammatory side events”. Moreover, in data set [7] (mice), the “effectiveness in contrasting P. aeruginosa pulmonary infection” value was “higher effectiveness than the all-L counterpart”. Moreover, the “promotion of re-epithelialization compared with Esc(1–21)” value in data set [8] is reported as “more efficient”.
Regarding “Gly-Ile-Phe-Ser-Lys-Leu-Ala-Gly-Lys-Lys-Ile-Lys-Asn- DLeu -Leu-Ile-DphosphoSer-Gly-Leu-Lys-Gly-NH2 [[DLeu^14, DphosphoSer^17]Esc, Esc analog with DLeu14 and D-phosphoSer at position 17]”, the “CFTR-mediated conductance (ΔG) compared to FSK-treated samples” value in [5] is listed as “about twofold”. In addition, in data set [9], the “current intensity at + 100 mV compared to control basal conditions” value was ~ 2.5 fold.
As to “Gly-Ile-Phe-Ser-Lys-Leu-Ala-Gly-Lys-Lys-Ile-Lys-Asn-Leu-Leu-Ile-Ser-Gly-Leu-Lys-Gly- NH2 [Esc(1–21)]”, the “change of TEER / transepithelial conductance (G) versus DMSO control” value in data set [3] and in data set [4] was “do not alter” in each case.

The values above are taken from article PMC8752549, “Esc peptides as novel potentiators of defective cystic fibrosis transmembrane conductance regulator: an unprecedented property of antimicrobial peptides” (Cellular and Molecular Life Sciences: CMLS, 2021).
